In ChEMBL document CHEMBL3739342, “Varitatin A, a Highly Modified Fatty Acid Amide from Penicillium variabile Cultured with a DNA Methyltransferase Inhibitor” (J Nat Prod, 2015):
The source made the active and inactive calls. No cut-off for these calls is given here.

Tests used:
[1] = Cytotoxicity against human HCT116 cells by SRB assay; format: functional, cell-based; conditions: HCT-116
Homo sapiens = organism: Homo sapiens; assay: Inhibition of PTK (unknown origin) at 1 uM by ELISA
[2] = target: Platelet-derived growth factor receptor beta (Homo sapiens) (UniProt P09619); assay: Inhibition of PDGFR-beta (unknown origin) at 1 uM by ELISA
[3] = target: Receptor tyrosine-protein kinase erbB-4 (Homo sapiens) (UniProt Q15303); assay: Inhibition of ErbB4 (unknown origin) at 1 uM by ELISA
Receptor tyrosine-protein kinase erbB-4 (Homo sapiens), sequence (Q15303 whole entry): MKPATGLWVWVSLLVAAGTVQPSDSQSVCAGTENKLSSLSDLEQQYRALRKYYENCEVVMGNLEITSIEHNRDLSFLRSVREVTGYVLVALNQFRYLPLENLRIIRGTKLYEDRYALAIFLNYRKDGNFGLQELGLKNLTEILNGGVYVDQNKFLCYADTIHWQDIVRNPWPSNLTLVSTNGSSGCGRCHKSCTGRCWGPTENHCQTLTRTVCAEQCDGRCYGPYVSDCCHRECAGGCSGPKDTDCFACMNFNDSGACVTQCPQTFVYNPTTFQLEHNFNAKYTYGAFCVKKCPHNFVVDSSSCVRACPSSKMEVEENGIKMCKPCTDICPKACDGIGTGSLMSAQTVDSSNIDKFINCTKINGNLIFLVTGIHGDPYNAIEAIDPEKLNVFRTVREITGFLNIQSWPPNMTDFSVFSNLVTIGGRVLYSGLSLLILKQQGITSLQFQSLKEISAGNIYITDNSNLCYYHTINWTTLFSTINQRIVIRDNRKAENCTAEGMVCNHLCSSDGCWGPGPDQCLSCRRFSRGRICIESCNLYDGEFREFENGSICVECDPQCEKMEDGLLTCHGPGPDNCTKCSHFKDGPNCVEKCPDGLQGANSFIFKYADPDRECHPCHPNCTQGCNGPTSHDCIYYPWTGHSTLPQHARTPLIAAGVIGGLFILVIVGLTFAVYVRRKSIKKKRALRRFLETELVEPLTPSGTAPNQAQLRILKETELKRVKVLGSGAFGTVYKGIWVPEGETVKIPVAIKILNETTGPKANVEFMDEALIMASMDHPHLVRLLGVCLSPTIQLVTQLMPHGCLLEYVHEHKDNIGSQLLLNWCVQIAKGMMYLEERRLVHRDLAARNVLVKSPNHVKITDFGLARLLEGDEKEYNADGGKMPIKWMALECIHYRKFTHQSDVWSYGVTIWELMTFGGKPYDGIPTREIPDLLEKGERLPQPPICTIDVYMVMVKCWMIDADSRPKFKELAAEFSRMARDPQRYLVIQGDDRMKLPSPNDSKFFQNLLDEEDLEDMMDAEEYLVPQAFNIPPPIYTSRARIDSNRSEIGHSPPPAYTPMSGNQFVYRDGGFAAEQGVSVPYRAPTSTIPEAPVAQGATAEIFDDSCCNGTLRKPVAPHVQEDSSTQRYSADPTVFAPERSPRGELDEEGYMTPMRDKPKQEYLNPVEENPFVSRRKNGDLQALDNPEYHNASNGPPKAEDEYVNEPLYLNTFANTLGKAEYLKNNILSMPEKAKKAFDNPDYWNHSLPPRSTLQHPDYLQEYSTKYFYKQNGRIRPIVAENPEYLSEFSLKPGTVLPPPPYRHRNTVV

Platelet-derived growth factor receptor beta (Homo sapiens), sequence (P09619 whole entry): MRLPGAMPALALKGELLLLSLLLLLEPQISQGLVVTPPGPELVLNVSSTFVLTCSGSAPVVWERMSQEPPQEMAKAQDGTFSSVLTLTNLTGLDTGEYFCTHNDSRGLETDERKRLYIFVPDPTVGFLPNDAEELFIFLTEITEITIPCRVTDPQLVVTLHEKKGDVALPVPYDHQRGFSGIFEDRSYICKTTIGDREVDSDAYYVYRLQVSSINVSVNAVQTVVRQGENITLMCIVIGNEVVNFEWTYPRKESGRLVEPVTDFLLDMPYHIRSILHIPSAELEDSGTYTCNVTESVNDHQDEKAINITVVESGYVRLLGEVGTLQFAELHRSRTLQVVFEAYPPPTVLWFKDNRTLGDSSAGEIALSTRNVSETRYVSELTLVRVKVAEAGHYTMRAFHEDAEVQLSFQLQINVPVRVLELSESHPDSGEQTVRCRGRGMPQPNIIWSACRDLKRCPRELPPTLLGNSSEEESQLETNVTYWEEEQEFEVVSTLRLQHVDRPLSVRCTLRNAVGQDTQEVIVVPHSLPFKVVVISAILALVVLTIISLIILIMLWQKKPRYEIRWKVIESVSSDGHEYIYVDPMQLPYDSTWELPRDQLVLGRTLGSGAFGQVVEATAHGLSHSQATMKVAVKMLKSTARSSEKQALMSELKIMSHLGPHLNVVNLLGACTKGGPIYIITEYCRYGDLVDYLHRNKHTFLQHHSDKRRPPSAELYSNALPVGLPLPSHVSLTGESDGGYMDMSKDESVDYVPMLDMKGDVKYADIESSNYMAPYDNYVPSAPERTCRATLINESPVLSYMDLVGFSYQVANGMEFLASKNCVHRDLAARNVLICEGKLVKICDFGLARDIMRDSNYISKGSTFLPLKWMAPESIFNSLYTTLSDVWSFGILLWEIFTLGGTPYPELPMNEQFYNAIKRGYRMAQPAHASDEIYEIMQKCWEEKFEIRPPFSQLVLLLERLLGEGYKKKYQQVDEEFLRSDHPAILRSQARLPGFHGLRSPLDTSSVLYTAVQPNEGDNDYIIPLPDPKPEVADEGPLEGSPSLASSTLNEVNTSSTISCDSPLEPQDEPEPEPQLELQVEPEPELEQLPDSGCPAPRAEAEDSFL

## CC[C@@H](C)/C=C/CCCC/C=C/C=C/C=C/C(=O)N[C@@H]1CO[C@@]2(O)C=C[C@@H](Cl)[C@H](O)[C@@]2(O)C1
[1]
  IC50: 2800 nM
Homo sapiens
  inhibition: Active
[2]
  inhibition: 50%
[3]
  inhibition: 40%

## COc1cccc2c1C(=O)c1c(O)c3c(c(O)c1C2=O)C[C@@](O)(C(=O)CO)C[C@@H]3O[C@H]1C[C@H](N)[C@H](O)[C@H](C)O1 [DOXORUBICIN]
[1]
  IC50: 200 nM
